# Columns and labels:
# Format in all cases: functional
# Mus musculus [1] = test: Incidence of disease (mouse type II collagen) was scored as the percentage of animals within each experimental group that exhibited joint or limb inflammation on day 44 at intraperitoneal dose of 0.75 mg/kg (deaths observed at 1.5 mg/kg)
# Mus musculus [2] = test: Tested for antiinflammatory activity on mouse type II collagen arthritis as Paw swelling of all animals in each group on day 37 at intraperitoneal dose of 0.19 mg/kg
# Mus musculus [3] = test: Incidence of disease (mouse type II collagen) was scored as the percentage of animals within each experimental group that exhibited joint or limb inflammation on day 23 at intraperitoneal dose of 0.75 mg/kg (deaths observed at 1.5 mg/kg)
# Mus musculus [4] = test: Incidence of disease (mouse type II collagen) was scored as the percentage of animals within each experimental group that exhibited joint or limb inflammation on day 30 at intraperitoneal dose of 0.19 mg/kg (deaths observed at 1.5 mg/kg)
# Mus musculus [5] = test: Incidence of disease (mouse type II collagen) was scored as the percentage of animals within each experimental group that exhibited joint or limb inflammation on day 30 at intraperitoneal dose of 0.024 mg/kg (deaths observed at 1.5 mg/kg)
# Mus musculus [6] = test: Incidence of disease (mouse type II collagen) was scored as the percentage of animals within each experimental group that exhibited joint or limb inflammation on day 37 at intraperitoneal dose of 0.094 mg/kg (deaths observed at 1.5 mg/kg)
# Mus musculus [7] = test: Incidence of disease (mouse type II collagen) was scored as the percentage of animals within each experimental group that exhibited joint or limb inflammation on day 37 at intraperitoneal dose of 0.047 mg/kg (deaths observed at 1.5 mg/kg)
# Mus musculus [8] = test: Tested for antiinflammatory activity on mouse type II collagen arthritis as Paw swelling of all animals in each group on day 23 at intraperitoneal dose of 0.75 mg/kg
# Mus musculus [9] = test: Tested for antiinflammatory activity on mouse type II collagen arthritis as Paw swelling of all animals in each group on day 23 at intraperitoneal dose of 0.047 mg/kg
# Mus musculus [10] = test: Tested for antiinflammatory activity on mouse type II collagen arthritis as Paw swelling of all animals in each group on day 23 at intraperitoneal dose of 0.19 mg/kg
# Mus musculus [11] = test: Tested for antiinflammatory activity on mouse type II collagen arthritis as Paw swelling of all animals in each group on day 37 at intraperitoneal dose of 0.75 mg/kg
# Mus musculus [12] = test: Incidence of disease (mouse type II collagen) was scored as the percentage of animals within each experimental group that exhibited joint or limb inflammation on day 23 at intraperitoneal dose of 0.047 mg/kg (deaths observed at 1.5 mg/kg)
# Mus musculus [13] = test: Tested for antiinflammatory activity on mouse type II collagen arthritis as Paw swelling of all animals in each group on day 44 at intraperitoneal dose of 0.19 mg/kg
# Mus musculus [14] = test: Tested for antiinflammatory activity on mouse type II collagen arthritis as Paw swelling of all animals in each group on day 30 at intraperitoneal dose of 0.024 mg/kg
# Mus musculus [15] = test: Incidence of disease (mouse type II collagen) was scored as the percentage of animals within each experimental group that exhibited joint or limb inflammation on day 44 at intraperitoneal dose of 0.38 mg/kg (deaths observed at 1.5 mg/kg)
# Mus musculus [16] = test: Incidence of disease (mouse type II collagen) was scored as the percentage of animals within each experimental group that exhibited joint or limb inflammation on day 30 at intraperitoneal dose of 0.047 mg/kg (deaths observed at 1.5 mg/kg)
# Mus musculus [17] = test: Tested for antiinflammatory activity on mouse type II collagen arthritis as Paw swelling of all animals in each group on day 23 at intraperitoneal dose of 0.024 mg/kg
# Mus musculus [18] = test: Incidence of disease (mouse type II collagen) was scored as the percentage of animals within each experimental group that exhibited joint or limb inflammation on day 30 at intraperitoneal dose of 0.38 mg/kg (deaths observed at 1.5 mg/kg)
# Mus musculus [19] = test: Incidence of disease (mouse type II collagen) was scored as the percentage of animals within each experimental group that exhibited joint or limb inflammation on day 23 at intraperitoneal dose of 0.094 mg/kg (deaths observed at 1.5 mg/kg)
# Mus musculus [20] = test: Incidence of disease (mouse type II collagen) was scored as the percentage of animals within each experimental group that exhibited joint or limb inflammation on day 30 at intraperitoneal dose of 0.094 mg/kg (deaths observed at 1.5 mg/kg)
# Mus musculus [21] = test: Tested for antiinflammatory activity on mouse type II collagen arthritis as Paw swelling of all animals in each group on day 44 at intraperitoneal dose of 0.047 mg/kg
# Mus musculus [22] = test: Tested for antiinflammatory activity on mouse type II collagen arthritis as Paw swelling of all animals in each group on day 30 at intraperitoneal dose of 0.094 mg/kg
# Mus musculus [23] = test: Incidence of disease (mouse type II collagen) was scored as the percentage of animals within each experimental group that exhibited joint or limb inflammation on day 23 at intraperitoneal dose of 0.024 mg/kg (deaths observed at 1.5 mg/kg)
# Mus musculus [24] = test: Incidence of disease (mouse type II collagen) was scored as the percentage of animals within each experimental group that exhibited joint or limb inflammation on day 37 at intraperitoneal dose of 0.75 mg/kg (deaths observed at 1.5 mg/kg)
# Mus musculus [25] = test: Incidence of disease (mouse type II collagen) was scored as the percentage of animals within each experimental group that exhibited joint or limb inflammation on day 37 at intraperitoneal dose of 0.19 mg/kg (deaths observed at 1.5 mg/kg)
# [26] = Concentration required to inhibit the growth of chang liver cells.; conditions: Homo sapiens
# Mus musculus [27] = test: Tested for antiinflammatory activity on mouse type II collagen arthritis as Paw swelling of all animals in each group on day 30 at intraperitoneal dose of 0.047 mg/kg
# Mus musculus [28] = test: Tested for antiinflammatory activity on mouse type II collagen arthritis as Paw swelling of all animals in each group on day 37 at intraperitoneal dose of 0.38 mg/kg
# Mus musculus [29] = test: Tested for antiinflammatory activity on mouse type II collagen arthritis as Paw swelling of all animals in each group on day 44 at intraperitoneal dose of 0.094 mg/kg
# Mus musculus [30] = test: Tested for antiinflammatory activity on mouse type II collagen arthritis as Paw swelling of all animals in each group on day 30 at intraperitoneal dose of 0.75 mg/kg
# Mus musculus [31] = test: Tested for antiinflammatory activity on mouse type II collagen arthritis as Paw swelling of all animals in each group on day 30 at intraperitoneal dose of 0.19 mg/kg
# Mus musculus [32] = test: Incidence of disease (mouse type II collagen) was scored as the percentage of animals within each experimental group that exhibited joint or limb inflammation on day 44 at intraperitoneal dose of 0.19 mg/kg (deaths observed at 1.5 mg/kg)
# Mus musculus [33] = test: Incidence of disease (mouse type II collagen) was scored as the percentage of animals within each experimental group that exhibited joint or limb inflammation on day 37 at intraperitoneal dose of 0.024 mg/kg (deaths observed at 1.5 mg/kg)
smiles,measurement,setting,value
CCc1c(CN(C)c2ccc(C(=O)NC(CCC(=O)O)C(=O)O)cc2)cnc2nc(N)nc(N)c12 (stereo not drawn),Animals,Mus musculus [1],14%
same,Paw swelling,Mus musculus [2],2.17 mm
same,Animals,Mus musculus [3],0%
same,Animals,Mus musculus [4],12%
same,Animals,Mus musculus [5],0%
same,Animals,Mus musculus [6],25%
same,Animals,Mus musculus [7],50%
same,Paw swelling,Mus musculus [8],2.14 mm
same,Paw swelling,Mus musculus [9],2.1 mm
same,Paw swelling,Mus musculus [10],2.11 mm
same,Paw swelling,Mus musculus [11],2.2 mm
same,Animals,Mus musculus [12],0%
same,Paw swelling,Mus musculus [13],2.2 mm
same,Paw swelling,Mus musculus [14],2.22 mm
same,Animals,Mus musculus [15],0%
same,Animals,Mus musculus [16],12%
same,Paw swelling,Mus musculus [17],2.12 mm
same,Animals,Mus musculus [18],0%
same,Animals,Mus musculus [19],0%
same,Animals,Mus musculus [20],12%
same,Paw swelling,Mus musculus [21],2.57 mm
same,Paw swelling,Mus musculus [22],2.14 mm
same,Animals,Mus musculus [23],0%
same,Animals,Mus musculus [24],14%
same,Animals,Mus musculus [25],12%
same,IC50,[26],89 nM
same,Paw swelling,Mus musculus [27],2.21 mm
same,Paw swelling,Mus musculus [28],2.17 mm
same,Paw swelling,Mus musculus [29],2.27 mm
same,Paw swelling,Mus musculus [30],2.2 mm
same,Paw swelling,Mus musculus [31],2.14 mm
same,Animals,Mus musculus [32],12%
same,Animals,Mus musculus [33],0%

# From ChEMBL document CHEMBL1129930, “Analogues of methotrexate in rheumatoid arthritis. 2. Effects of 5-deazaaminopterin, 5,10-dideazaaminopterin, and analogues on type II collagen-induced arthritis in mice” (J Med Chem, 1997)
